In US20080021098A1, “Antifungal Compositions” (GIVAUDAN SA, priority 2004, published 2008):

Tested on: Cladosporium sphaerospermum IK-65 on cotton fabrics / Cladosporium sphaerospermum MTL on plaster
Test: Minimal headspace level required for antifungal activity (olfactometer, constant fragrance vapour)
Assay type: cell-based
Conditions: test phase of 7 days; for Effect on fungal growth: at the headspace level of the same line; for Headspace level required to inhibit fungal growth: constant vapour concentration
Procedure: In order to determine the effective level of the anti-mould fragrance compounds needed for anti-mould vapour phase activity, an olfactometer is constructed that allows delivery to the fungal growth substrate of a constant concentration of fragrance vapour. A stream of nitrogen is saturated with the fragrance component, and the fragrance-saturated gas is then diluted with water saturated air at different ratios. This mixture is then blown continuously through enclosed acryl-glass boxes and the headspace is measured by sampling 1 ml gas sample with subsequent analysis in the gas chromatograph. Once a steady state in the acryl-glass box is reached (usually within 1-3 days), a fungal inoculum on a relevant substrate is added to the box, and fungal growth during a test phase of 7 days is evaluated.
The following relevant substrate—inoculum combinations were used: • (a) White pieces of cotton fabrics were soaked with a solution of potato dextrose broth diluted to a final concentration of 5% containing spores from the fungal test strain Cladosporium sphaerospermum IK-65 diluted to a final density corresponding to an optical density at 600 nm of 0.01. The test strain IK 65 was isolated from moist fabrics having fungal off odors, and it is a typical strain growing on fabrics as substrate. • (b) White plaster used for fixing ceramic tiles in bathrooms was spread homogenously on the back of 35 mm Petri dishes. On each Petri dish, 160 μl of a fungal inoculum was evenly spread. It contained potato dextrose broth diluted to a final concentration of 50% and spores from the fungal test strain Cladosporium sphaerospermum MTL diluted to a final density corresponding to an optical density at 600 nm of 0.004. The test strain MTL was isolated from a bathroom with vigorous mould growth on the plaster between tiles.

Row | Structure (SMILES) | Effect on fungal growth | Headspace level required to inhibit fungal growth [µg/L]
1 | CC1=CC(C)C(C=O)CC1 (stereo not shown) [1-carboxaldehyde-2,4-dimethyl-cyclohex-3-en] | over 90% inhibition | 21
2 | COc1ccc(CC(C)C=O)cc1 (stereo not shown) [3-(4-methoxyphenyl)-2-methyl-propanal] | complete inhibition | 1.9
3 | CC1=CCC(C(C)CCO)CC1 (stereo not shown) [3-(4-methyl-3-cyclohexenyl)-butanol] | 80% inhibition | 4.5
4 | COc1ccc(C=O)cc1 [4-methoxy-benzaldehyde] | over 90% inhibition | 7.5
5 | CC1(C)CCCC2=C1CC(C=O)CC2 (stereo not shown) [8,8-Dimethyl-1,2,3,4,5,6,7,8-octahydro-naphthalene-2-carbaldehyde] | complete inhibition | 4.9
